Tested on: RAW264.7 macrophagocytes
Method: Besides, we contrastively explored cellular uptakes of BBI, PDP, sBBI and sBBI&PDP into a macrophage cell line RAW264.7 and HCC cell line Hepa1-6. The fluorescence was derived from fluorescein isothiocyanate (FITC), FITC was linked to the amino-terminal of sBBI, and the sBBI with FITC was then combined with PDP to form FITC-sBBI&PDP.
Hepa1-6 cells are seeded in 6-well plates at an appropriate density, approximately 200,000 cells per
well. After cell attachment, 1 mL of drug was labeled with 10 µL of FITC (100:1). Keep away from
light, and co-incubate the drug with the cells for 10 minutes. Digest cells according to normal
procedures. After centrifugation, wash 2-3 times with PBS and resuspend in 150-200 µL PBS for
FACS detection. FITC was incubated with drugs for 30 minutes. Plate with 6 cm confocal laser
dishes, 100,000 cells per well. After cell attachment, FITC-labeled drug was added. Drugs were co-
cultured with cells for 6 h. Cells were washed twice with PBS and cellular uptake observed under a
confocal laser fluorescence microscope.

Substance	Cellular uptake
CHEHEKFEQR-(PEG3)-nyskptdrqyhfrr [PDP]	neither BBI nor PDP peptide showed cellular uptakes
KFERQKILDSQEQLEHRERSLQT -(Hle)-RDIQRML-(2-Nal)-PC [BBI]	neither BBI nor PDP peptide showed cellular uptakes

From publication PMC10283047, “Targeting β-catenin and PD-L1 simultaneously by a racemic supramolecular peptide for the potent immunotherapy of hepatocellular carcinoma” (Theranostics, 2023)
